Among the data in US20210267989A1, “Novel Compounds for the Treatment, Alleviation or Prevention of Disorders Associated with Tau Aggregates” (AC Immune SA, priority 2018, published 2021) are EC50 values, retold here.

The experiment has as its target T1, recombinant full-length (fl)Tau aggregates (longest isoform of human Tau, 2N4R; 441 amino acids) (Homo sapiens, UniProt P10636).
T1 construct: 35 μM of recombinant full-length (fl)Tau in PBS were aggregated for 24 hours; made in house; host or cells: bacteria
As to the kind of experiment: Full-length Tau (flTau) disaggregation assay by Thioflavin T (ThT). In kind it is biochemical. As to conditions: ThT fluorescence; 2 μM flTau aggregates, 30 minutes at RT. The protocol: Full-Length Tau (flTau) Disaggregation Assay by Thioflavin T (ThT)
The longest isoform of human Tau (2N4R; 441 amino acids) was expressed in bacteria and purified. For the Tau disaggregation assay by ThT, 35 μM of recombinant full-length (fl)Tau in PBS were aggregated for 24 hours at 37° C. in presence of 50 μM of heparin (Sigma-Aldrich) and 10 mM of DTT (Sigma-Aldrich) under shaking at 750 RPM. Compounds were dissolved in anhydrous dimethyl sulfoxide (DMSO, Sigma-Aldrich) to reach a concentration of 10 mM. flTau aggregates and serial dilutions of compounds were mixed together in PBS (volume 50 μL) to a final concentration of 2 μM of flTau aggregates and from 160 to 0.04 μM of compounds. The mixture was incubated for 30 minutes at room temperature (RT), then 40 μL of this mixture were transferred into a black 384-well plate assay (Perkin-Elmer) and mixed with 10 μL of 100 μM ThT in 250 mM glycine (both from Sigma-Aldrich) in PBS. Fluorescence (relative fluorescence units; RFU) was measured in monoplicate or duplicate on a Tecan reader (excitation: 440 nm; emission: 485 nm). Percentage of flTau disaggregation was then calculated and the half maximal effective concentration (EC50) was determined using GraphPad Prism version 5 (GraphPad Software) assuming a one-binding site fitting model.

Structures can show the parent of a compound that is named as a salt.

T1 sequence (P10636 1-441 isoform P10636-8): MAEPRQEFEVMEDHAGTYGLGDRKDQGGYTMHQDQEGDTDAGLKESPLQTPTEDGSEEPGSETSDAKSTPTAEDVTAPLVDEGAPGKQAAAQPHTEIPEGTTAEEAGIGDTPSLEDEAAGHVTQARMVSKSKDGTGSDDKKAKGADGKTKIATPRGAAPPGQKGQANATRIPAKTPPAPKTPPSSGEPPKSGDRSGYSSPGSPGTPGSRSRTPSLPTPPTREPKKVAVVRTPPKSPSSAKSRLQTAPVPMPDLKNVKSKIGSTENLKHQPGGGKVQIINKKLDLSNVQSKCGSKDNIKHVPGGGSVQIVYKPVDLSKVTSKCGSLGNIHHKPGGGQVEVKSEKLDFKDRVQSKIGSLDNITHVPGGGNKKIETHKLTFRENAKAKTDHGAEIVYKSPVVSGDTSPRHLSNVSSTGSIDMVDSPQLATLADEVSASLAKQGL

As to `Cn1c2c(c3ccccc31)CCN(c1ccc3nc(N4CCOCC4)sc3c1)C2` [Example 1], the EC50 (as a rule, the midpoint of the concentration-response curve) is below 10 µM.
As to `CN(C)c1nc2ccc(N3CCc4c(n(C)c5ccccc45)C3)cc2s1` [Example 2], the EC50 was below 10 µM.
Next, `Cn1c2c(c3ccc(F)cc31)CCN(c1ccc3nc(N4CCOCC4)sc3c1)C2` [Example 6]: below 10 µM.
Consider `Cn1c2c(c3ccc(F)cc31)CCN(c1ccc3sc(N4CCOCC4)nc3c1)C2` [Example 7], for which the EC50 is below 10 µM.
Take `Cn1c2c(c3cc(F)ccc31)CCN(c1ccc(N3CCOCC3)nc1)C2` [Example 8]: the 50% effective concentration (EC50) was below 10 µM.
Next, `COc1cc(N2CCc3c(n(C)c4ccc(F)cc34)C2)ccc1F` [Example 9]: below 10 µM.
Under `CN(C)c1nc2cc(N3CCc4c(n(C)c5ccc(F)cc45)C3)ccc2s1` [Example 11] stands below 10 µM; under `CN(C)c1nc2cc(N3CCc4c(n(C)c5ccc(F)cc45)C3)ccc2o1` [Example 13], below 10 µM; under `COc1ccc2c(c1)c1c(n2C)CN(c2ccc3sc(N4CCOCC4)nc3c2)CC1` [Example 14], below 10 µM.
Next, `COc1ccc2c(c1)c1c(n2C)CN(c2ccc3nc(N4CCOCC4)sc3c2)CC1` [Example 15]: below 10 µM; `COc1ccc2c(c1)c1c(n2C)CN(c2ccc3oc(N4CCOCC4)nc3c2)CC1` [Example 16]: below 10 µM; `COc1ccc2c(c1)c1c(n2C)CN(c2ccc3sc(N(C)C)nc3c2)CC1` [Example 17]: below 10 µM.
Take `COc1ccc2c(c1)c1c(n2C)CN(c2ccc3nc(N(C)C)sc3c2)CC1` [Example 18]: the EC50 was below 10 µM.
For `COc1ccc2c(c1)c1c(n2C)CN(c2ccc3nc(N(C)C)oc3c2)CC1` [Example 19], the EC50 is below 10 µM.
Take `c1ccc2c3c([nH]c2c1)CN(c1ccc(N2CCOCC2)nc1)CC3` [Example 44 HCl]: the EC50 is below 10 µM.
Turning to `Cn1c2c(c3ccccc31)CCN(c1ccc(N3CCOCC3)cn1)C2` [Example 45 HCl], the EC50 is below 10 µM.
For the compound `Cn1c2c(c3ccccc31)CCN(c1ccc(N3CCOCC3)nc1)C2` [Example 46 HCl], the EC50 is 10 to 25 µM.
Next, `c1ccc2c3c([nH]c2c1)CN(c1ccc(N2CC4COCC4C2)nc1)CC3` (centres unmarked) [Example 69 HCl]: below 10 µM.
As for `c1ccc2c3c([nH]c2c1)CN(c1ccc(N2CC4CC(C2)O4)nc1)CC3` [Example 71 HCl], the EC50 is 10 to 25 µM.
In the case of `C[C@H]1CN(c2ccc(N3CCc4c([nH]c5ccccc45)C3)cn2)CCO1` [Example 74 HCl], the EC50 is below 10 µM.
`C[C@@H]1CN(c2ccc(N3CCc4c([nH]c5ccccc45)C3)cn2)CCO1` [Example 75 HCl]: the concentration giving a half-maximal response (EC50) was below 10 µM.
Turning to `C[C@@H]1CN(c2ccc(N3CCc4c([nH]c5ccccc45)C3)cn2)C[C@H](C)O1` [Example 76 HCl], the EC50 is below 10 µM.
In the case of `C[C@H]1COCCN1c1ccc(N2CCc3c([nH]c4ccccc34)C2)cn1` [Example 79 HCl], the concentration giving a half-maximal response (EC50) is 10 to 25 µM.
For `c1ccc2c3c([nH]c2c1)CN(c1ccc(N2CC4(CCOCC4)C2)nc1)CC3` [Example 80 HCl], the concentration giving a half-maximal response (EC50) was in the range of 10 to 25 µM.
On to `c1ccc2c3c([nH]c2c1)CN(c1ccc(N2CCC4(CC2)COC4)nc1)CC3` [Example 83 HCl], for which the concentration giving a half-maximal response (EC50) is 25 to 50 µM.
Under `c1ccc2c3c([nH]c2c1)CN(c1ccc(N2C[C@H]4C[C@@H]2CO4)nc1)CC3` [Example 85 HCl] stands 10 to 25 µM; under `c1ccc2c3c([nH]c2c1)CN(c1ccc(N2C[C@@H]4C[C@H]2CO4)nc1)CC3` [Example 86 HCl], below 10 µM.
As for `Cn1c2c(c3cc(F)ccc31)CCN(c1ccc3oc(N4CCOCC4)nc3c1)C2` [Example 104], the concentration giving a half-maximal response (EC50) is below 10 µM.
Under `Cn1c2c(c3cccnc31)CCN(c1ccc(N3CCOCC3)nc1)C2` [Example 105 HCl] stands 25 to 50 µM.
Regarding `Cn1c2c(c3cc(F)cnc31)CCN(c1ccc(N3CCOCC3)cn1)C2` [Example 107 HCl], the EC50 is 25 to 50 µM.
In the case of `Fc1ccc2c3c([nH]c2c1)CN(c1ccc(N2CCOCC2)nc1)CC3` [Example 108 HCl], the EC50 was below 10 µM.
Consider `Fc1ccc2c3c([nH]c2c1)CN(c1ccc(N2CCOCC2)cn1)CC3` [Example 109 HCl], for which the EC50 was below 10 µM.
Under `Cn1c2c(c3ccc(F)cc31)CCN(c1ccc(N3CCOCC3)nc1)C2` [Example 110 HCl] stands below 10 µM; under `Cn1c2c(c3ccc(F)cc31)CCN(c1ccc(N3CCOCC3)cn1)C2` [Example 111 HCl], below 10 µM; under `CCn1c2c(c3ccccc31)CCN(c1ccc(N3CCOCC3)nc1)C2` [Example 123 HCl], below 10 µM.
